The target of the experiment is human HIF-PHD2 (Homo sapiens (Human), UniProt Q9GZT9). Description: HIF-PHD2 inhibition assay (hydroxylation of HIF-1α peptide, time resolved fluorescence). Type of experiment: biochemical. The conditions noted are these: FLAG-tagged full length PHD2; 0.2 μM 2-oxoglutarate, 0.5 μM HIF-1α peptide; 45 minutes at room temperature. The procedure: To each well of a 384-well plate, 1 μL of test compounds in DMSO (final concentration ranging from 0.3 nM to 10 uM) were added into 20 μl of assay buffer (50 mM Tris pH 7.4/0.01% Tween-20/0.1 mg/ml bovine serum albumin/10 μM ferrous sulfate/1 mM sodium ascorbate/20 μg/ml catalase) containing 0.15 μg/ml FLAG-tagged full length PHD2 expressed in and purified from baculovirus-infected Sf9 cells. […] Purif.
Sequence of human HIF-PHD2 (Q9GZT9 whole entry): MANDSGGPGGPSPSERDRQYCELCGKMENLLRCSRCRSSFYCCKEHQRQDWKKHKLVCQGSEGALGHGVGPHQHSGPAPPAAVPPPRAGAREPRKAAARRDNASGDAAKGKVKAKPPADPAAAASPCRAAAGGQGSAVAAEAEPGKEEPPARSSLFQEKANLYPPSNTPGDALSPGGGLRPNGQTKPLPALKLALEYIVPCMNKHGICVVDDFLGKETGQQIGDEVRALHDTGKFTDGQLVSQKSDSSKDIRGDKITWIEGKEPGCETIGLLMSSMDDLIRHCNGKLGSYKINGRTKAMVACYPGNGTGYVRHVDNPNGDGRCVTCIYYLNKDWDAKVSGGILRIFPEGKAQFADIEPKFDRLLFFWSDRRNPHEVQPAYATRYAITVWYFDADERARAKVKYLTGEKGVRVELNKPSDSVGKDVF

With `O=C(O)CNC(=O)c1c(O)c2c(n(-c3ccc(Br)cc3)c1=O)CSC2` [Example 11, 2-(1-(4-Bromophenyl)-4-hydroxy-2-oxo-1,2,5,7-tetrahydrothieno[3,4-b]pyridine-3-carboxamido)acetic acid], the IC50 was determined as 8.8 nM.
On to `O=C(O)CNC(=O)c1c(O)c2c(n(-c3ccc(-c4ccc(OC(F)(F)F)cc4)cc3)c1=O)CSC2` [Example 12], for which half-maximal inhibition (IC50) required 10 nM.

Usually IC50 stands for the concentration at which inhibition is half-maximal. Low values mean greater potency in that assay, high ones weaker potency in that assay.

Source of the values: patent US10208060B2, “Inhibitors of HIF prolyl hydroxylase” (Merck Sharp & Dohme Corp., priority 2014, dated 2019).
